{"source": "patent US20020195406A1", "about": "“Compositions and methods for disinfecting small diameter water lines” (priority 2001, published 2002)", "key": {"biofilms": {"system": "biofilms", "conditions": "household bleach 5.25%, glutaraldehyde 3%, isopropanol 15.3%, cited from earlier work; for effluents from biofilms after contact: 15-hours contact; for recolonization returned to pretreatment levels by day: after 15-hours contact"}, "[1]": {"system": "dental unit biofilm bacteria", "conditions": "13% (130,000 ppm), used periodically in one facility; cited from earlier work"}, "biofilm bacteria": {"system": "biofilm bacteria", "conditions": "free chlorine; cited from earlier work"}, "[2]": {"conditions": "half reaction as printed; cited from earlier work"}, "[3]": {"system": "bacteria in biofilms of dental water unit lines", "experiment": "Microbial counts for a dental water unit after three staggered 30-min treatments with 500 ppm ClO2 (Example 2)", "format": "cell-based", "excerpt": "The level, however, is probably typical of the tap water in the UK, where this study was run. In this study three staggered 30-minute exposures to 500 ppm ClO2 solution were made, and counts then made from 1 to 4 days after each treatment. The techniques of treatment and sampling were similar to those described in Example 1. The ClO2 solution was similarly prepared, using half the level of sodium chlorite and hypochlorite initially, after acidification with citric acid."}, "[4]": {"system": "bacteria in biofilms of dental water unit lines", "experiment": "Microbial counts for a dental water unit after three staggered 30-min treatments with 500 ppm ClO2 (Example 2)", "format": "cell-based", "remark": "listed apart in the source"}, "[5]": {"system": "bacteria in biofilms of dental water unit lines", "experiment": "Microbial counts from a dental water unit supplied with sterile water after a single 1000 ppm ClO2 30-minute exposure (Example 4)", "format": "cell-based", "description": "Treatment: This study was run on a dental water unit that had been supplied with sterile water for a week, after its normal operation with tap water. The intent of the study was to determine if a unit, once disinfected, and not then re-exposed to tap water with excess levels of micro-organisms, would show the rebound in organism levels that has been observed in the previous examples. The unit was exposed to a single 1000 ppm solution of ClO2, prepared and applied for 30 minutes, as fully described in Example 1. Sampling and counting techniques were also the same."}, "[6]": {"system": "bacteria in biofilms of dental water unit lines", "experiment": "Microbial counts for 6 dental water units after one 30-min treatment with 1000 ppm ClO2 (Example 1)", "format": "cell-based", "conditions": "for Microbial count of unit effluent water: individual units 31-40; for Microbial count of unit effluent water, mean: mean of 6 units", "description": "Treatment: This example involved six dental water units, in a preliminary range finding study. The study was run during a particularly warm period of weather, where concomitant warmer municipal water temperatures would be expected to exacerbate biofilm contamination problems. The units were all of the same model, and were fitted with detachable water reservoirs. 100 ml of tap water was placed in each reservoir, and water was then run through the ultrasonic outlets for 30 seconds. Thereafter 30 ml of water was collected aseptically from each outlet. The reservoirs were then disconnected, and water run out of all outlets until the units ran dry. 100 ml of a 1000 ppm treatment solution, prepared as follows, was then placed in each reservoir:\n10 ml of a 5.0% sodium chlorite solution was pipetted into a 100-ml volumetric flask already containing 75 ml of deionized water. To that was added 2.0 ml of 13% sodium hypochlorite solution (bleach). Immediately thereafter, 10.0 ml of a 1.9% citric acid solution was added, brought to volume with deionized water, sealed and the flask was agitated to mix the contents.\nAll outlets were then run until the solution came through each one. The solutions were then left in each unit for 30 minutes, after which the reservoirs were disconnected and the treatment solution was run out until all three outlets from each unit were dry. The reservoirs were then rinsed and filled with water (about 1 liter), and the water then run out of all three outlets until the reservoirs were empty.\n[…] Samples were also collected from the tap from which water to operate the units was taken.\nMicrobial Culture: The water samples were vortex mixed, and then diluted in phosphate-buffered saline in two 10-fold dilutions. The samples were then plated onto yeast extract agar by means of a spiral plater. The plates were incubated at 22° C. for four days, after which they were counted."}, "[7]": {"system": "bacteria in biofilms of dental water unit lines", "experiment": "Microbial counts for a dental water unit after three consecutive-day 30-min treatments with 500 ppm ClO2 (Example 3)", "format": "cell-based", "description": "The level, however, is probably typical of the tap water in the UK, where this study was run. In this study the unit was treated as in Example 2, but on three consecutive days. Samples were taken of both the incoming supply water and from the unit before treatment on each day, with a 500 ppm ClO2 solution for 30-minutes, and also 1, 2 and 5 days after the last treatment. This schedule is represented in the chart below, along with the data derived from each water sample."}, "[8]": {"system": "microorganisms in small diameter water lines", "conditions": "after 24 hours of treatment; approximately 10%; cited from earlier work"}}, "note": "“And” between values parts separate entries of the source, which are not always exact repeats. Equal entries are not always repeated.", "data": [{"compound": "O=CCCCC=O", "note": "[glutaraldehyde]", "values": [{"measurement": "effluents from biofilms after contact", "setting": "biofilms", "result": "free of recoverable bacteria"}, {"measurement": "recolonization returned to pretreatment levels by day", "setting": "biofilms", "result": 3, "unit": "days"}]}, {"compound": "OCl", "note": "[hypochlorite]", "values": [{"measurement": "effect on bacterial counts", "setting": "[1]", "result": "dramatic reductions in bacterial counts, but these rise again rather quickly"}]}, {"compound": "OCl", "note": "[hypochlorous acid]", "values": [{"measurement": "resistance of biofilm bacteria relative to unattached cells", "setting": "biofilm bacteria", "result": "150-3000 times"}, {"measurement": "oxidation potential", "setting": "[2]", "result": 1.49, "unit": "V"}]}, {"compound": "CC(C)O", "note": "[isopropanol]", "values": [{"measurement": "effluents from biofilms after contact", "setting": "biofilms", "result": "free of recoverable bacteria"}, {"measurement": "recolonization returned to pretreatment levels by day", "setting": "biofilms", "result": 15, "unit": "days"}]}, {"compound": "chlorine dioxide [ClO2]", "values": [{"measurement": "reduction in organisms in the effluent water", "setting": "[3]; after the first 500 ppm treatment", "result": 83, "unit": "fold"}, {"measurement": "reduction of unit's count", "setting": "[3]; after the first 500 ppm treatment (day 0 to day 1)", "result": 1.92, "unit": "logs"}, {"measurement": "Unit Microbial Count", "setting": "[3]; day 1, one day after first 30-min 500 ppm treatment (day 0)", "result": 2.66, "unit": "log cfu/ml"}, {"measurement": "Unit Microbial Count", "setting": "[3]; day 4, four days after first 500 ppm treatment", "result": 4.66, "unit": "log cfu/ml"}, {"measurement": "Unit Microbial Count", "setting": "[3]; day 8, one day after second 500 ppm treatment", "result": 3.04, "unit": "log cfu/ml"}, {"measurement": "Unit Microbial Count", "setting": "[3]; day 11, four days after second 500 ppm treatment, before third", "result": 4.18, "unit": "log cfu/ml"}, {"measurement": "Unit Microbial Count", "setting": "[3]; day 12, one day after third 500 ppm treatment", "result": 1.60, "unit": "log cfu/ml"}, {"measurement": "Unit Microbial Count", "setting": "[3]; day 15, four days after third 500 ppm treatment", "result": 3.15, "unit": "log cfu/ml"}, {"measurement": "Unit Microbial Count", "setting": "[4]; day 7, seven days after first 500 ppm treatment, before second", "result": 5.83, "unit": "log cfu/ml"}, {"measurement": "Unit Microbial Count", "setting": "[4]; day 18, 7 days after third 500 ppm treatment", "result": 4.08, "unit": "log cfu/ml"}, {"measurement": "Unit Count", "setting": "[5]; 4th day post-application", "result": 0, "unit": "cfu/ml"}, {"measurement": "Microbial Counts, Unit Water", "setting": "[5]; day 8, 1 day after single 1000 ppm 30-min exposure, sterile water supply, unit active", "result": 2.26, "unit": "log cfu/ml"}, {"measurement": "Microbial Counts, Unit Water", "setting": "[5]; day 9, 2 days after exposure, sterile water supply, active", "result": 1.3, "unit": "log cfu/ml"}, {"measurement": "Microbial Counts, Unit Water", "setting": "[5]; day 10, 3 days after exposure, sterile water supply, active", "result": 1.3, "unit": "log cfu/ml"}, {"measurement": "Microbial Counts, Unit Water", "setting": "[5]; day 11, 4 days after exposure, sterile water supply, active", "result": 0, "unit": "log cfu/ml"}, {"measurement": "Microbial Counts, Unit Water", "setting": "[5]; day 14, 7 days after exposure, after passive weekend (days 12-13)", "result": 3.88, "unit": "log cfu/ml"}, {"measurement": "Unit Count", "setting": "[5]; days 2-3 post-application, numerical value of 1.3 logs", "result": 20, "unit": "organisms per ml"}, {"measurement": "Unit Count", "setting": "[5]; one day after treatment, numerical value", "result": 182, "unit": "cfu/ml"}, {"measurement": "further drop", "setting": "[5]; subsequent 2 days after day 8", "result": 10, "unit": "fold"}, {"measurement": "population drop", "setting": "[5]; within a day of the ClO2 treatment", "result": "about 40,500 microbial organism per ml of water"}, {"measurement": "drop of unit count", "setting": "[5]; within a day of the ClO2 treatment, from pre-treatment average of 4.61 logs", "result": 2.35, "unit": "log cfu/ml"}, {"measurement": "reduction in the effluent's cfu/ml", "setting": "[6]; after day two vs T=0, 1000 ppm, 30 min", "result": 27, "unit": "fold"}, {"measurement": "difference from T=0", "setting": "[6]; after day two, 1000 ppm, 30 min", "result": 1.43, "unit": "logs"}, {"measurement": "DWU effluent count relative to tap water", "setting": "[6]; day 3 after treatment, 1000 ppm, 30 min", "result": "approximated that of the tap water"}, {"measurement": "Microbial count of unit effluent water", "setting": "[6]; 1 day after 30-min treatment with 1000 ppm ClO2", "result": "1.90 log cfu/ml and 2.08 log cfu/ml and 2.45 log cfu/ml and 3.85 log cfu/ml and 2.30 log cfu/ml and 1.30 log cfu/ml"}, {"measurement": "Microbial count of unit effluent water", "setting": "[6]; 2 days after 30-min treatment with 1000 ppm ClO2", "result": "2.78 log cfu/ml and 3.56 log cfu/ml and 3.86 log cfu/ml and 3.32 log cfu/ml and 2.51 log cfu/ml and 3.03 log cfu/ml"}, {"measurement": "Microbial count of unit effluent water", "setting": "[6]; 3 days after 30-min treatment with 1000 ppm ClO2", "result": "3.94 log cfu/ml and 3.85 log cfu/ml and 5.25 log cfu/ml and 4.34 log cfu/ml and 2.62 log cfu/ml and 2.81 log cfu/ml"}, {"measurement": "Microbial count of unit effluent water, mean", "setting": "[6]; 1 day after 30-min 1000 ppm ClO2", "result": 2.31, "unit": "log cfu/ml"}, {"measurement": "Microbial count of unit effluent water, mean", "setting": "[6]; 2 days after 30-min 1000 ppm ClO2", "result": 3.18, "unit": "log cfu/ml"}, {"measurement": "Microbial count of unit effluent water, mean", "setting": "[6]; 3 days after 30-min 1000 ppm ClO2", "result": 3.80, "unit": "log cfu/ml"}, {"measurement": "drop in bacterial colonies per ml of effluent water", "setting": "[6]; one day after treatment vs T=0, 1000 ppm, 30 min", "result": 2.3, "unit": "log"}, {"measurement": "bacterial colonies per ml of effluent water", "setting": "[6]; one day after treatment, numerical value of mean, 1000 ppm, 30 min", "result": 204, "unit": "colonies per ml"}, {"measurement": "unit count below that of the incoming water", "setting": "[7]; Day 4", "result": 0.9, "unit": "logs"}, {"measurement": "unit count below that of the incoming water", "setting": "[7]; Day 5", "result": 0.8, "unit": "logs"}, {"measurement": "count in the issuing water higher than the supply water", "setting": "[7]; Day 8, five days after the last treatment", "result": 1.0, "unit": "log"}, {"measurement": "Unit Count", "setting": "[7]; day 2, 1 day after first 30-min 500 ppm treatment", "result": 2.7, "unit": "log cfu/ml"}, {"measurement": "Unit Count", "setting": "[7]; day 3, 1 day after second consecutive 500 ppm treatment", "result": 1.8, "unit": "log cfu/ml"}, {"measurement": "Unit Count", "setting": "[7]; day 4, 1 day after third consecutive 500 ppm treatment", "result": 2.8, "unit": "log cfu/ml"}, {"measurement": "Unit Count", "setting": "[7]; day 5, 2 days after last 500 ppm treatment", "result": 2.3, "unit": "log cfu/ml"}, {"measurement": "Unit Count", "setting": "[7]; day 8, 5 days after last 500 ppm treatment", "result": 3.9, "unit": "log cfu/ml"}, {"measurement": "unit count below that of the incoming water", "setting": "[7]; one day after the first 500 ppm treatment (day 2)", "result": 1.2, "unit": "logs"}]}, {"compound": "povidone-iodine", "values": [{"measurement": "numbers of bacteria after treatment", "setting": "[8]", "result": "greatly reduced"}, {"measurement": "regrowth of bacteria after treatment", "setting": "[8]", "result": "quickly begin to rise after eight days"}]}]}
